For 16 compounds, IC50 results are on record in US20250145665A1, “MACROCYCLIC PEPTIDES USEFUL AS MODULATORS OF TNF ALPHA” (Bristol-Myers Squibb Company, priority 2023, published 2025).

SMILES strings stand for the structures. Positions of bridges follow the written chain, without caps; N, C: chain ends. Non-standard residues stand in square brackets, D forms with d. Residues, ends and D or L forms follow the SMILES beside them. Bip(4'-COOH) = N[C@@H](Cc1ccc(-c2ccc(C(=O)O)cc2)cc1)C(=O)O; Ala(morpholin-4-yl) = N[C@@H](CN1CCOCC1)C(=O)O; Phe(4-CONH2) = NC(=O)c1ccc(C[C@H](N)C(=O)O)cc1; Phe(4-CH2NH2) = NCc1ccc(C[C@H](N)C(=O)O)cc1; Bip = N[C@@H](Cc1ccc(-c2ccccc2)cc1)C(=O)O; Morpholine(3S-CO) = O=C(O)[C@@H]1COCCN1; Phe(4-Me) = Cc1ccc(C[C@H](N)C(=O)O)cc1; Val(3-OH) = CC(C)(O)[C@H](N)C(=O)O; h4Pal = N[C@@H](CCc1ccncc1)C(=O)O; hPhe = N[C@@H](CCc1ccccc1)C(=O)O; 2Pal = N[C@@H](Cc1ccccn1)C(=O)O; Tic = O=C(O)[C@@H]1Cc2ccccc2CN1; Aze = O=C(O)[C@@H]1CCN1; Sar = CNCC(=O)O

The target in the first assay is TNFα (Homo sapiens, UniProt P01375). The experiment in a line: TNF-Induced HEK-Blue Assay. In kind it is cell-based.
TNFα, sequence (P01375 77-233 limits assumed): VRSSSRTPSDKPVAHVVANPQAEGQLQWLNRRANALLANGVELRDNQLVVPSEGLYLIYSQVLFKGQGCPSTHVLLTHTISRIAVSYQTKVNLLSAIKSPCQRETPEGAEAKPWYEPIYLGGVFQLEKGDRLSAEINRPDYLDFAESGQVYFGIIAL
Settings: not given
Take `CC(C)C[C@@H]1NC(=O)[C@H](Cc2ccc(O)cc2)NC(=O)[C@H](C(C)C)NC(=O)CN(C)C(=O)[C@H](C(C)C)NC(=O)[C@H](CCCNC(=N)N)NC(=O)[C@H](CC(=O)O)NC(=O)[C@@H]2CCCN2C(=O)CN(C)C(=O)[C@H](Cc2ccc(-c3ccccc3)cc2)NC(=O)[C@H](Cc2ccc(-c3ccccc3)cc2)NC(=O)[C@H](CC(N)=O)NC(=O)CSC[C@@H](C(=O)NCC(N)=O)NC1=O` [Example 142] ({CH2CO}-N[Bip][Bip][Sar]PDRV[Sar]VYLCG-NH2; thioether N-13): the IC50 was 200 to 2000 nM.

The same assay, now with this note: HEK-Blue-CD40L cells, NF-kB-driven secreted alkaline phosphatase reporter; TNFα 0.5 ng/ml; 18 h; read-out: TNF induced HEK-Blue assay IC50 value.
For the compound `CC(C)C[C@@H]1NC(=O)[C@H](Cc2ccc(O)cc2)NC(=O)[C@H](C(C)C)NC(=O)CNC(=O)[C@H](C(C)C)NC(=O)[C@H](CCCNC(=N)N)NC(=O)[C@H](CC(=O)O)NC(=O)[C@@H]2CCCN2C(=O)CN(C)C(=O)[C@H](Cc2ccc(-c3ccccc3)cc2)NC(=O)[C@H](Cc2ccc(-c3ccccc3)cc2)NC(=O)[C@H](CN2CCOCC2)NC(=O)CSC[C@@H](C(=O)NCC(N)=O)NC1=O` [Example 139] ({CH2CO}-[Ala(morpholin-4-yl)][Bip][Bip][Sar]PDRVGVYLCG-NH2; thioether N-13), the IC50 was in the range of 200 to 2000 nM. The same measure, in the same setting: to `CC(C)C[C@@H]1NC(=O)[C@H](Cc2ccc(O)cc2)NC(=O)[C@H](C(C)C)NC(=O)CN(C)C(=O)[C@H](C(C)C)NC(=O)[C@H](CCCNC(=N)N)NC(=O)[C@H](CC(=O)O)NC(=O)[C@H](Cc2ccc(O)cc2)NC(=O)CN(C)C(=O)[C@H](Cc2ccc(-c3ccccc3)cc2)NC(=O)[C@H](Cc2ccc(-c3ccccc3)cc2)NC(=O)[C@H](C(C)(C)O)NC(=O)CSC[C@@H](C(=O)NCC(N)=O)NC1=O` [Example 140] ({CH2CO}-[Val(3-OH)][Bip][Bip][Sar]YDRV[Sar]VYLCG-NH2; thioether N-13) belongs 200 to 2000 nM; to `CC(C)C[C@@H]1NC(=O)[C@H](Cc2ccc(O)cc2)NC(=O)[C@H](C(C)C)NC(=O)CN(C)C(=O)[C@H](C(C)C)NC(=O)[C@H](CCCNC(=N)N)NC(=O)[C@H](CC(=O)O)NC(=O)[C@@H]2CCCN2C(=O)CN(C)C(=O)[C@H](Cc2ccc(-c3ccccc3)cc2)NC(=O)[C@H](Cc2ccc(-c3ccccc3)cc2)NC(=O)[C@H](C(C)(C)O)NC(=O)CSC[C@@H](C(=O)NCC(N)=O)NC1=O` [Example 141] ({CH2CO}-[Val(3-OH)][Bip][Bip][Sar]PDRV[Sar]VYLCG-NH2; thioether N-13), 50 to 200 nM. The same measure, in the same setting: with `CC(C)C[C@@H]1NC(=O)[C@H](Cc2ccc(O)cc2)NC(=O)[C@H](C(C)C)NC(=O)[C@@H]2COCCN2C(=O)[C@H](C(C)C)NC(=O)[C@@H](CCCNC(=N)N)NC(=O)[C@H](CC(=O)O)NC(=O)[C@H](Cc2ccc(O)cc2)NC(=O)CN(C)C(=O)[C@H](Cc2ccc(-c3ccccc3)cc2)NC(=O)[C@H](Cc2ccc(-c3ccccc3)cc2)NC(=O)[C@H](CN2CCOCC2)NC(=O)CSC[C@@H](C(=O)NCC(N)=O)NC1=O` [Example 143] ({CH2CO}-[Ala(morpholin-4-yl)][Bip][Bip][Sar]YD[dR]V[Morpholine(3S-CO)]VYLCG-NH2; thioether N-13) the figure was under 50 nM; with `CC(C)C[C@@H]1NC(=O)[C@H](Cc2ccc(O)cc2)NC(=O)[C@H](C(C)C)NC(=O)[C@@H]2CCCN2C(=O)[C@H](C(C)C)NC(=O)[C@@H](CCCNC(=N)N)NC(=O)[C@H](CC(=O)O)NC(=O)[C@H](Cc2ccccn2)NC(=O)CN(C)C(=O)[C@H](Cc2ccc(-c3ccccc3)cc2)NC(=O)[C@H](Cc2ccc(-c3ccccc3)cc2)NC(=O)[C@H](CN2CCOCC2)NC(=O)CSC[C@@H](C(=O)NCC(N)=O)NC1=O` [Example 144] ({CH2CO}-[Ala(morpholin-4-yl)][Bip][Bip][Sar][2Pal]D[dR]VPVYLCG-NH2; thioether N-13), under 50 nM; with `CC(C)C[C@@H]1NC(=O)[C@H](Cc2ccc(O)cc2)NC(=O)[C@H](C(C)C)NC(=O)[C@@H]2CCN2C(=O)[C@H](CC(N)=O)NC(=O)[C@@H](CCCNC(=N)N)NC(=O)[C@H](CC(=O)O)NC(=O)[C@H](Cc2ccc(O)cc2)NC(=O)CN(C)C(=O)[C@H](Cc2ccc(-c3ccccc3)cc2)NC(=O)[C@H](Cc2ccc(-c3ccc(C(=O)O)cc3)cc2)NC(=O)[C@H](CN2CCOCC2)NC(=O)CSC[C@@H](C(=O)NCC(N)=O)NC1=O` [Example 145] ({CH2CO}-[Ala(morpholin-4-yl)][Bip(4'-COOH)][Bip][Sar]YD[dR]N[Aze]VYLCG-NH2; thioether N-13), under 50 nM. The same measure, in the same setting: to `CC(C)C[C@@H]1NC(=O)[C@H](Cc2ccc(O)cc2)NC(=O)[C@H](C(C)C)NC(=O)[C@@H]2Cc3ccccc3CN2C(=O)[C@H](CC(N)=O)NC(=O)[C@@H](CCCNC(=N)N)NC(=O)[C@H](CC(=O)O)NC(=O)[C@H](Cc2ccc(O)cc2)NC(=O)CN(C)C(=O)[C@H](Cc2ccc(-c3ccccc3)cc2)NC(=O)[C@H](Cc2ccc(-c3ccc(C(=O)O)cc3)cc2)NC(=O)[C@H](CN2CCOCC2)NC(=O)CSC[C@@H](C(=O)NCC(N)=O)NC1=O` [Example 146] ({CH2CO}-[Ala(morpholin-4-yl)][Bip(4'-COOH)][Bip][Sar]YD[dR]N[Tic]VYLCG-NH2; thioether N-13) belongs under 50 nM; to `CC(C)C[C@@H]1NC(=O)[C@H](Cc2ccc(O)cc2)NC(=O)[C@H](C(C)C)NC(=O)[C@@H]2CCN2C(=O)[C@H](C(C)C)NC(=O)[C@@H](CCCNC(=N)N)NC(=O)[C@H](CC(=O)O)NC(=O)[C@H](Cc2ccc(O)cc2)NC(=O)CN(C)C(=O)[C@H](Cc2ccc(-c3ccccc3)cc2)NC(=O)[C@H](Cc2ccc(-c3ccc(C(=O)O)cc3)cc2)NC(=O)[C@H](CN2CCOCC2)NC(=O)CSC[C@@H](C(=O)NCC(N)=O)NC1=O` [Example 147] ({CH2CO}-[Ala(morpholin-4-yl)][Bip(4'-COOH)][Bip][Sar]YD[dR]V[Aze]VYLCG-NH2; thioether N-13), under 50 nM. For the compound `CC(C)C[C@@H]1NC(=O)[C@H](Cc2ccc(O)cc2)NC(=O)[C@H](C(C)C)NC(=O)[C@@H]2Cc3ccccc3CN2C(=O)[C@H](C(C)C)NC(=O)[C@@H](CCCNC(=N)N)NC(=O)[C@H](CC(=O)O)NC(=O)[C@H](Cc2ccc(O)cc2)NC(=O)CN(C)C(=O)[C@H](Cc2ccc(-c3ccccc3)cc2)NC(=O)[C@H](Cc2ccc(-c3ccc(C(=O)O)cc3)cc2)NC(=O)[C@H](CN2CCOCC2)NC(=O)CSC[C@@H](C(=O)NCC(N)=O)NC1=O` [Example 148] ({CH2CO}-[Ala(morpholin-4-yl)][Bip(4'-COOH)][Bip][Sar]YD[dR]V[Tic]VYLCG-NH2; thioether N-13), the IC50 is under 50 nM. Consider `CC(C)C[C@@H]1NC(=O)[C@H](Cc2ccc(O)cc2)NC(=O)[C@H](CC(C)C)NC(=O)[C@@H]2CCCN2C(=O)[C@H](C(C)C)NC(=O)[C@@H](CCCNC(=N)N)NC(=O)[C@H](CC(=O)O)NC(=O)[C@H](Cc2ccc(O)cc2)NC(=O)CN(C)C(=O)[C@H](Cc2ccc(-c3ccccc3)cc2)NC(=O)[C@H](Cc2ccc(-c3ccccc3)cc2)NC(=O)[C@H](CN2CCOCC2)NC(=O)CSC[C@@H](C(=O)NCC(N)=O)NC1=O` [Example 149] ({CH2CO}-[Ala(morpholin-4-yl)][Bip][Bip][Sar]YD[dR]VPLYLCG-NH2; thioether N-13), for which the IC50 was 50 to 200 nM. For `CC(C)C[C@@H]1NC(=O)[C@H](Cc2ccc(CN)cc2)NC(=O)[C@H](C(C)C)NC(=O)[C@@H]2CCCN2C(=O)[C@H](C(C)C)NC(=O)[C@@H](CCCNC(=N)N)NC(=O)[C@H](CC(=O)O)NC(=O)[C@H](Cc2ccc(O)cc2)NC(=O)CN(C)C(=O)[C@H](Cc2ccc(-c3ccccc3)cc2)NC(=O)[C@H](Cc2ccc(-c3ccccc3)cc2)NC(=O)[C@H](CN2CCOCC2)NC(=O)CSC[C@@H](C(=O)NCC(N)=O)NC1=O` [Example 150] ({CH2CO}-[Ala(morpholin-4-yl)][Bip][Bip][Sar]YD[dR]VPV[Phe(4-CH2NH2)]LCG-NH2; thioether N-13), the IC50 lay within 50 to 200 nM. On the same count and under the same terms, with `CC(C)C[C@@H]1NC(=O)[C@H](Cc2ccc(C(N)=O)cc2)NC(=O)[C@H](C(C)C)NC(=O)[C@@H]2CCCN2C(=O)[C@H](C(C)C)NC(=O)[C@@H](CCCNC(=N)N)NC(=O)[C@H](CC(=O)O)NC(=O)[C@H](Cc2ccc(O)cc2)NC(=O)CN(C)C(=O)[C@H](Cc2ccc(-c3ccccc3)cc2)NC(=O)[C@H](Cc2ccc(-c3ccccc3)cc2)NC(=O)[C@H](CN2CCOCC2)NC(=O)CSC[C@@H](C(=O)NCC(N)=O)NC1=O` [Example 151] ({CH2CO}-[Ala(morpholin-4-yl)][Bip][Bip][Sar]YD[dR]VPV[Phe(4-CONH2)]LCG-NH2; thioether N-13) the figure was 50 to 200 nM.

Consider `Cc1ccc(C[C@@H]2NC(=O)[C@H](C(C)C)NC(=O)[C@@H]3CCCN3C(=O)[C@H](C(C)C)NC(=O)[C@@H](CCCNC(=N)N)NC(=O)[C@H](CC(=O)O)NC(=O)[C@H](Cc3ccc(O)cc3)NC(=O)CN(C)C(=O)[C@H](Cc3ccc(-c4ccccc4)cc3)NC(=O)[C@H](Cc3ccc(-c4ccccc4)cc3)NC(=O)[C@H](CN3CCOCC3)NC(=O)CSC[C@@H](C(=O)NCC(N)=O)NC(=O)[C@H](CC(C)C)NC2=O)cc1` [Example 152] ({CH2CO}-[Ala(morpholin-4-yl)][Bip][Bip][Sar]YD[dR]VPV[Phe(4-Me)]LCG-NH2; thioether N-13), for which the IC50 lay within 50 to 200 nM. On the same count and under the same terms, with `CC(C)C[C@@H]1NC(=O)[C@H](CCc2ccccc2)NC(=O)[C@H](C(C)C)NC(=O)[C@@H]2CCCN2C(=O)[C@H](C(C)C)NC(=O)[C@@H](CCCNC(=N)N)NC(=O)[C@H](CC(=O)O)NC(=O)[C@H](Cc2ccc(O)cc2)NC(=O)CN(C)C(=O)[C@H](Cc2ccc(-c3ccccc3)cc2)NC(=O)[C@H](Cc2ccc(-c3ccccc3)cc2)NC(=O)[C@H](CN2CCOCC2)NC(=O)CSC[C@@H](C(=O)NCC(N)=O)NC1=O` [Example 154] ({CH2CO}-[Ala(morpholin-4-yl)][Bip][Bip][Sar]YD[dR]VPV[hPhe]LCG-NH2; thioether N-13) the figure was 50 to 200 nM; with `CC(C)C[C@@H]1NC(=O)[C@H](CCc2ccncc2)NC(=O)[C@H](C(C)C)NC(=O)[C@@H]2CCCN2C(=O)[C@H](C(C)C)NC(=O)[C@@H](CCCNC(=N)N)NC(=O)[C@H](CC(=O)O)NC(=O)[C@H](Cc2ccc(O)cc2)NC(=O)CN(C)C(=O)[C@H](Cc2ccc(-c3ccccc3)cc2)NC(=O)[C@H](Cc2ccc(-c3ccccc3)cc2)NC(=O)[C@H](CN2CCOCC2)NC(=O)CSC[C@@H](C(=O)NCC(N)=O)NC1=O` [Example 155] ({CH2CO}-[Ala(morpholin-4-yl)][Bip][Bip][Sar]YD[dR]VPV[h4Pal]LCG-NH2; thioether N-13), under 50 nM.
